For orientation: IC50 means the concentration that gives 50% inhibition.

The structures appear in SMILES notation. Where a name gives a salt, the structure may show the parent alone. Read-outs that look alike come from different tables or passages of the source. Marks after values point to notes of the source that are not given here.

Consider 18 molecules from US20150259331A1, “PROTOZOAN PARASITE GROWTH INHIBITORS” (Northeastern University, priority 2014, published 2015).

Test [1] relates to L. major amastigote. Kind of test: L. major amastigote assay. Type of test: cell-based.
The test system of test [2] is L. major promastigote. Briefly: L. major promastigote assay. Type of test: cell-based.
In test [3] the test system is T. brucei brucei Lister 427. Kind of test: Trypanosome replication assay. Type of test: cell-based, Trypanosoma brucei brucei. To be noted: 48 h, values ±7%. As to the method:
Then 2 μL of DMSO (control) or different concentrations of drugs prepared from 200× DMSO stocks were added to the cultures. Cells were incubated at 37° C. for 48 h and counted with a hemocytometer. […] All experiments were repeated thrice in independent studies where each dose was administered in duplicate (total n=6). HepG2 Cell Toxicity Assay. The 384 well MTT cytotoxicity assay is a modification of the MTT method described by Ferrari et al. optimized for 384-well throughput, with modifications described below.

Test [4] deals with P. falciparum W2. Briefly: P. falciparum W2 assay. The test is classed as cell-based.
Test [5] relates to P. falciparum D6. Kind of test: P. falciparum D6 assay. The conditions noted are these: strain D6. The test is classed as cell-based.
Test [6] relates to P. falciparum C235. Briefly: P. falciparum C235 assay. Type of test: cell-based. The conditions noted are these: read-out: P. falciparum C235 (EC50).
In test [7] the test system is T. cruzi. Briefly: T. cruzi growth inhibition. Type of test: cell-based, Trypanosoma cruzi.
For test [8], the system named is HepG2 cells. Briefly: HepG2 cell toxicity (MTT) assay. The conditions noted are these: MTT, 48 hour incubation, read-out: HepG2 IC50. The test is classed as cell-based. Here is the method:
Then 2 μL of DMSO (control) or different concentrations of drugs prepared from 200× DMSO stocks were added to the cultures. […] All experiments were repeated thrice in independent studies where each dose was administered in duplicate (total n=6). HepG2 Cell Toxicity Assay. The 384 well MTT cytotoxicity assay is a modification of the MTT method described by Ferrari et al. optimized for 384-well throughput, with modifications described below.
HepG2 Cell Toxicity assay. The 384 well MTT cytotoxicity assay is a modification of the MTT method described by Ferrari et al.^1 ENREF—26_ENREF—26_ENREF—26 optimized for 384 well throughput. […] 4.25 μL of diluted test compound was then added to the 38.3 μL of media in each well providing a 10 fold final dilution of compound. […] After a 48 hour incubation period, 8 μL of a 1.5 mg/ml solution of MTT diluted in complete MEM media was added to each well. All plates were subsequently incubated in the dark for 1 hour at room temperature. After incubation, the media and drugs in each well was removed by shaking plate over sink, the plates are then left to dry in hood for 15 minutes. […] Plates are put on a 3-D rotator for 15-30 minutes. Absorbance was determined in all wells using a Tecan iControl 1.6 Infinite plate reader.

Setting [9] is: concentration giving 50% inhibition of growth of T brucei brucei Lister 427 cells, read-out: Tbb EC50.
[10] abbreviates: strain W2, read-out: P. falciparum W2 (EC50).
Where [11] appears, read: Trypanosoma brucei, concentration giving 50% inhibition of growth of T brucei brucei Lister 427 cells, read-out: Tbb EC50.

For the molecule `CN1CCN(S(=O)(=O)c2ccc(-c3ccc4ncnc(Nc5ccccc5)c4c3)cc2)CC1` [NEU-767], the EC50 is greater than 15 µM in test [1]; 6.1 µM in test [2]; 1.5 µM in test [3] (setting [9]); 1.5 µM in test [4] (setting [10]); 0.7 µM in test [5]; 0.73 µM in test [6] (strain C235). The molecule further yielded an EC50 in test [7] greater than 50 µM.

For the molecule `CN1CCN(c2cccc(-c3ccc4ncnc(Nc5ccc(OCc6cccc(F)c6)c(Cl)c5)c4c3)c2)CC1` [NEU-714], the EC50 was 4.2 µM in test [1]; 1.9 µM in test [2]; 0.55 µM in test [3] (setting [9]); 0.059 µM in test [4] (setting [10]); 0.044 µM in test [5]; 0.11 µM in test [6] (strain C235). Also, the “T. cruzi % inh at 10 μM” value in test [7] is listed as “(72)* %”.

As for `Fc1cccc(COc2ccc(Nc3ncnc4ccc(-c5ccc(N6CCCCC6)cc5)cc34)cc2Cl)c1` [Compound 23h, N-(3-Chloro-4-((3-fluorobenzyl)oxy)phenyl)-6-(4-(piperidin-1-yl)phenyl)quinazolin-4-amine], the EC50 in test [1] (Leishmania major) was 5 µM; in test [2] (Leishmania major) it was greater than 15 µM; in test [3] (Trypanosoma brucei, read-out: Tbb EC50, concentration giving 50% inhibition of growth of T brucei brucei Lister 427 cells), 0.38 µM; in test [4] (Plasmodium falciparum, W2, read-out: P. falciparum W2 (EC50)), 1.2 µM; in test [5] (Plasmodium falciparum), 0.58 µM; in test [6] (Plasmodium falciparum) it was 1 µM. Moreover, the EC50 in test [7] (Trypanosoma cruzi) was 7.2 µM.

Consider `CN(C)c1cccc(-c2ccc3ncnc(Nc4ccc(OCc5cccc(F)c5)c(Cl)c4)c3c2)c1` [NEU-708], for which the EC50 in test [1] was greater than 15 µM; in test [2], greater than 15 µM; in test [3] (setting [9]), 2.2 µM; in test [4] (setting [10]) it was 1.4 µM; in test [5] it was 0.46 µM; in test [6] (strain C235) it was 0.55 µM. The “T. cruzi % inh at 10 μM” value in test [7] is “(58)* %”.

On to `O=S(=O)(c1ccc(-c2ccc3ncnc(Nc4ccc(OCc5cccc(F)c5F)c(Cl)c4)c3c2)cc1)N1CCOCC1` [Compound 20h, N-(3-Chloro-4-((2,3-difluorobenzyl)oxy)phenyl)-6-(4-(morpholinosulfonyl)phenyl)quinazolin-4-amine Hydrochloride], for which the EC50 in test [3] (setting [11]) turned out to be 0.82 µM. Also, the IC50 in test [8] (Homo sapiens, HepG2, 48 h) was greater than 15 µM.

As to `Fc1cccc(COc2ccc(Nc3ncnc4ccc(-c5cccc(N6CCSCC6)c5)cc34)cc2Cl)c1` [NEU-713], the EC50 in test [1] is 10 µM; in test [2] it was greater than 15 µM; in test [3] (setting [9]) it was 0.77 µM; in test [4] (setting [10]), 1.3 µM; in test [5], 0.44 µM; in test [6] (strain C235) it was 0.78 µM. Also, the “T. cruzi % inh at 10 μM” value in test [7] was “(55)* %”.

As for `Fc1cccc(COc2ccc(Nc3ncnc4ccc(-c5cccc(CN6CCCCC6)c5)cc34)cc2Cl)c1` [Compound 23i], the EC50 in test [1] is 3.5 µM; in test [2] it was 2.5 µM; in test [3] (setting [9]), 0.65 µM; in test [4] (setting [10]), 0.073 µM; in test [5], 0.039 µM; in test [6] (strain C235) it was 0.065 µM. In test [7], this molecule yielded an EC50 of 1.5 µM.

For the molecule `Fc1cccc(COc2ccc(Nc3ncnc4ccc(-c5cccc(CN6CCOCC6)c5)cc34)cc2Cl)c1` [Compound 23c], the EC50 in test [1] was 3 µM; in test [2], 3.3 µM; in test [3] (setting [9]) it was 0.36 µM; in test [4] (setting [10]), 0.35 µM; in test [5], 0.19 µM; in test [6] (strain C235), 0.29 µM. For the same molecule, in test [7], the EC50 came out at 2.4 µM.

For `Fc1cccc(COc2ccc(Nc3ncnc4ccc(-c5ccccc5)cc34)cc2Cl)c1` [NEU-706], the EC50 in test [1] worked out at 22 µM; in test [2], 4 µM; in test [3] (setting [9]), 3.9 µM; in test [4] (setting [10]) it was 2.6 µM; in test [5], 0.79 µM; in test [6] (strain C235) it was 1.2 µM. Besides, the EC50 in test [7] was determined as 1.8 µM.

Consider `CN1CCN(S(=O)(=O)c2ccc(-c3ccc4ncnc(Nc5ccc(OCc6ccccc6)cc5)c4c3)cc2)CC1` [NEU-765], for which the EC50 in test [1] is 1.9 µM; in test [2], 1.5 µM; in test [3] (setting [9]), 0.63 µM; in test [4] (setting [10]), 0.11 µM; in test [5] it was 0.041 µM; in test [6] (strain C235), 0.036 µM. In addition, in test [7], the EC50 was found to be 9.9 µM.

As for `Fc1cccc(COc2ccc(Nc3ncnc4ccc(-c5ccc(CN6CCCCC6)cc5)cc34)cc2Cl)c1` [Compound 23j], the EC50 in test [1] was found to be 5.5 µM; in test [2], 8.4 µM; in test [3] (setting [9]), 1.5 µM; in test [4] (setting [10]), 0.11 µM; in test [5], 0.068 µM; in test [6] (strain C235), 0.091 µM. The EC50 in test [7] worked out at 3.4 µM.

On to `O=C(c1cncc(-c2ccc3ncnc(Nc4ccc(OCc5cccc(F)c5)c(Cl)c4)c3c2)c1)N1CCOCC1` [NEU-640], for which the EC50 is greater than 15 µM in test [1]; greater than 15 µM in test [2]; 0.34 µM in test [3] (setting [9]); 0.63 µM in test [4] (setting [10]); 0.37 µM in test [5]; 0.5 µM in test [6] (strain C235). Moreover, the “T. cruzi % inh at 10 μM” value in test [7] is −2%.

As to `O=C(c1cccc(-c2ccc3ncnc(Nc4ccc(OCc5cccc(F)c5)c(Cl)c4)c3c2)c1)N1CCOCC1` [Compound 23e, (3-(4-((3-Chloro-4-((3-fluorobenzyl)oxy)phenyl)amino)-quinazolin-6-yl)phenyl)(morpholino)methanone], the EC50 in test [1] (Leishmania major) was greater than 15 µM; in test [2] (Leishmania major), 3 µM; in test [3] (setting [11]), 0.55 µM; in test [4] (Plasmodium falciparum, strain W2, read-out: P. falciparum W2 (EC50)), 1.1 µM; in test [5] (Plasmodium falciparum), 0.76 µM; in test [6] (Plasmodium falciparum, strain C235), 1.2 µM. For the same molecule, in test [7] (Trypanosoma cruzi), the EC50 was 3.5 µM.

Take `Fc1cccc(COc2ccc(Nc3ncnc4ccc(-c5ccc(N6CCNCC6)cc5)cc34)cc2Cl)c1` [NEU-710]: the EC50 in test [1] is 8.6 µM; in test [2], greater than 15 µM; in test [3] (setting [9]), 0.37 µM; in test [4] (setting [10]), 0.63 µM; in test [5] it was 0.38 µM; in test [6] (strain C235) it was 0.76 µM. This molecule registered an EC50 in test [7] of 1.4 µM.

Take `Cl.O=S(=O)(c1ccc(-c2ccc3ncnc(Nc4ccc(OCc5ccccc5F)c(Cl)c4)c3c2)cc1)N1CCOCC1` [Compound 20i, N-(3-Chloro-4-((2-fluorobenzypoxy)phenyl)-6-(4-(morpholinosulfonyl)phenyl)quinazolin-4-amine Hydrochloride]: the EC50 was greater than 15 µM in test [1]; 0.71 µM in test [2]; 1.65 µM in test [3] (concentration giving 50% inhibition of growth of T brucei brucei Lister 427 cells, Hydrochloride, read-out: Tbb EC50); 1.7 µM in test [3] (concentration giving 50% inhibition of growth of T brucei brucei Lister 427 cells, listed as NEU-565, Hydrochloride, read-out: Tbb EC50); 0.57 µM in test [4] (setting [10]); 0.13 µM in test [5]. For the same molecule, in test [6] (strain C235), the EC50 amounted to 0.22 µM. For the same molecule, in test [8], the IC50 is greater than 15 µM.

As for `Fc1cccc(Cn2ncc3ccc(Nc4ncnc5ccc(-c6cccc(N7CCOCC7)c6)cc45)cc32)c1` [NEU-734], the EC50 in test [1] was greater than 15 µM; in test [2], 0.98 µM; in test [3] (setting [9]), 0.84 µM; in test [4] (setting [10]), 0.74 µM; in test [5], 0.91 µM; in test [6] (strain C235) it was 1.1 µM. Further, in test [7], the “T. cruzi % inh at 10 μM” value is “(62)* %”.

In the case of `CC(C)(C)OC(=O)N1CCN(S(=O)(=O)c2ccc(-c3ccc4ncnc(Nc5ccc(OCc6cccc(F)c6)c(Cl)c5)c4c3)cc2)CC1` [NEU-624], the EC50 in test [1] came to 14 µM; in test [2] it was 14 µM; in test [3] (setting [9]), 1 µM; in test [4] (setting [10]), 0.58 µM; in test [5], 0.27 µM; in test [6] (strain C235), 0.43 µM. Further, in test [7], the “T. cruzi % inh at 10 μM” value is reported as “(5)* %”.

For `CN1CCN(S(=O)(=O)c2ccc(-c3ccc4ncnc(Nc5ccc6cnn(Cc7cccc(F)c7)c6c5)c4c3)cc2)CC1` [NEU-771], the EC50 was greater than 15 µM in test [1]; greater than 15 µM in test [2]; 1.2 µM in test [3] (setting [9]); 0.09 µM in test [4] (setting [10]); 0.039 µM in test [5]; 0.04 µM in test [6] (strain C235). In addition, in test [7], the EC50 came to 1.5 µM.
